ChEMBL document CHEMBL1201862, “PubChem BioAssay data set” (2004)
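Cells were grown in 96-well plates and exposed to each compound for 48 hours at five concentrations; endpoints were interpolated linearly between bracketing concentrations, or set to the highest concentration if not reached. GI50 = concentration required for 50% inhibition of growth.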 The source made the active and inactive calls. Rule as the data show it: active = GI50 up to about 1.1 µM and inactive = higher.

Legend:
Test in all cases: NCI anticancer screen, dose series, 48 h
786-0 = test system: 786-0
CCRF-CEM = test system: CCRF-CEM
COLO 205 = test system: COLO 205
HOP-92 = test system: HOP-92
K562 = test system: K562
KM12 = test system: KM12
NCI-H460 = test system: NCI-H460
OVCAR-5 = test system: OVCAR-5
OVCAR-8 = test system: OVCAR-8
SF-268 = test system: SF-268
SF-539 = test system: SF-539
SK-MEL-2 = test system: SK-MEL-2
SK-OV-3 = test system: SK-OV-3
SNB-19 = test system: SNB-19
TK-10 = test system: TK-10
UACC-62 = test system: UACC-62
LOX IMVI = test system: LOX IMVI
RXF 393 = test system: RXF 393

Measured: GI50

Nc1c(-c2nc3ccccc3s2)[n+]([O-])c2ccccc2[n+]1[O-]
inactive: 786-0 32.1 µM | CCRF-CEM 42.6 µM | COLO 205 37.1 µM | HOP-92 23.1 µM | K562 45.8 µM | KM12 33.2 µM | NCI-H460 28.1 µM | OVCAR-5 > 100 µM | OVCAR-8 38.6 µM | SF-268 26.9 µM | SF-539 29.9 µM | SK-MEL-2 29.1 µM | SK-OV-3 37 µM | SNB-19 29.3 µM | TK-10 42.1 µM | UACC-62 33.8 µM

O=C(Nc1ccc(Cl)cc1C(=O)O)c1ccc([N+](=O)[O-])cc1
inactive: 786-0 13.4 µM | CCRF-CEM 20.2 µM | COLO 205 18.7 µM | HOP-92 8.18 µM | K562 20.8 µM | KM12 18.4 µM | LOX IMVI 19.9 µM | NCI-H460 18.5 µM | OVCAR-5 22.5 µM | OVCAR-8 26.7 µM | SF-268 20.2 µM | SF-539 14.5 µM | SK-MEL-2 3.72 µM | SK-OV-3 18.2 µM | SNB-19 14.5 µM | TK-10 31.4 µM | UACC-62 14.5 µM

Cc1noc(C)c1CCCOC1COc2ccccc2OCCOCCOc2ccccc2OC1
inactive: 786-0 > 100 µM | COLO 205 > 100 µM | K562 > 100 µM | KM12 > 100 µM | LOX IMVI > 100 µM | OVCAR-5 > 100 µM | OVCAR-8 > 100 µM | RXF 393 > 100 µM | SF-268 > 100 µM | SF-539 > 100 µM | SK-MEL-2 > 100 µM | SK-OV-3 > 100 µM | SNB-19 > 100 µM | TK-10 > 100 µM | UACC-62 27.5 µM

CCOC(=O)Nn1c(C)cc(C(=O)OC)c1C
inactive: 786-0 > 100 µM | CCRF-CEM > 100 µM | COLO 205 > 100 µM | K562 > 100 µM | KM12 > 100 µM | LOX IMVI > 100 µM | NCI-H460 > 100 µM | OVCAR-5 > 100 µM | OVCAR-8 > 100 µM | RXF 393 > 100 µM | SF-268 > 100 µM | SF-539 > 100 µM | SK-MEL-2 > 100 µM | SK-OV-3 > 100 µM | SNB-19 > 100 µM | TK-10 > 100 µM | UACC-62 > 100 µM

Cc1cc2cc(Cl)ccc2nc1C(=O)c1ccccc1
inactive: 786-0 > 100 µM | COLO 205 > 100 µM | K562 > 100 µM | KM12 > 100 µM | LOX IMVI > 100 µM | OVCAR-5 > 100 µM | OVCAR-8 > 100 µM | RXF 393 22.5 µM | SF-268 > 100 µM | SF-539 > 100 µM | SK-MEL-2 > 100 µM | SNB-19 > 100 µM | TK-10 > 100 µM | UACC-62 > 100 µM

CC(=O)Nc1ccc(/C=c2\sc3nnc(-c4cccnc4)n3c2=O)cc1
inactive: 786-0 16.6 µM | CCRF-CEM 17.4 µM | COLO 205 15.4 µM | HOP-92 12 µM | K562 22.4 µM | KM12 16.8 µM | LOX IMVI 16.5 µM | NCI-H460 16.3 µM | OVCAR-5 27.5 µM | OVCAR-8 17.6 µM | RXF 393 22.3 µM | SF-268 25.2 µM | SF-539 18.7 µM | SK-MEL-2 20.9 µM | SK-OV-3 24 µM | SNB-19 24.2 µM | TK-10 21.6 µM | UACC-62 13.4 µM

C[N+]1(C)C/C(=C\c2ccncc2)C(=O)/C(=C/c2ccncc2)C1
inactive: 786-0 > 100 µM | CCRF-CEM 37.1 µM | COLO 205 > 100 µM | HOP-92 > 100 µM | KM12 > 100 µM | LOX IMVI > 100 µM | NCI-H460 > 100 µM | OVCAR-5 > 100 µM | OVCAR-8 > 100 µM | RXF 393 > 100 µM | SF-268 25.2 µM | SF-539 > 100 µM | SK-OV-3 > 100 µM | SNB-19 > 100 µM | TK-10 > 100 µM | UACC-62 > 100 µM

O=C1c2ccc(O)cc2C(=O)c2ccc(O)cc21
inactive: 786-0 42.7 µM | CCRF-CEM 59.3 µM | COLO 205 > 100 µM | HOP-92 63.1 µM | K562 50.1 µM | KM12 88.7 µM | LOX IMVI 58.1 µM | NCI-H460 53.2 µM | OVCAR-5 > 100 µM | OVCAR-8 > 100 µM | RXF 393 29.9 µM | SF-268 55.3 µM | SF-539 40.9 µM | SK-MEL-2 45.7 µM | SK-OV-3 33.2 µM | SNB-19 78.9 µM | TK-10 61.8 µM | UACC-62 56.8 µM

COc1ccc(C(=O)N2c3ccccc3N(C)n3cccc3C2CC(=O)O)cc1 (centres undefined)
inactive: 786-0 > 100 µM | CCRF-CEM > 100 µM | COLO 205 > 100 µM | HOP-92 > 100 µM | K562 > 100 µM | KM12 > 100 µM | LOX IMVI > 100 µM | NCI-H460 > 100 µM | OVCAR-5 > 100 µM | OVCAR-8 > 100 µM | RXF 393 > 100 µM | SF-268 > 100 µM | SF-539 > 100 µM | SK-MEL-2 > 100 µM | SK-OV-3 > 100 µM | SNB-19 > 100 µM | TK-10 > 100 µM | UACC-62 > 100 µM

Cc1ccc(NC(=O)C(=O)C2C(=O)NC(=O)NC2=O)cc1C
inactive: 786-0 > 100 µM | CCRF-CEM > 100 µM | COLO 205 > 100 µM | HOP-92 > 100 µM | K562 > 100 µM | KM12 > 100 µM | LOX IMVI > 100 µM | NCI-H460 > 100 µM | OVCAR-5 > 100 µM | OVCAR-8 > 100 µM | RXF 393 > 100 µM | SF-268 > 100 µM | SF-539 > 100 µM | SK-MEL-2 > 100 µM | SK-OV-3 > 100 µM | SNB-19 > 100 µM | TK-10 > 100 µM | UACC-62 > 100 µM

COc1ccc(/C=C/C(=O)c2c(-c3ccccc3)nn(C)c(=O)c2N2CCCCC2)cc1
inactive: 786-0 14.2 µM | CCRF-CEM 9.95 µM | COLO 205 16.7 µM | HOP-92 3.81 µM | K562 11.8 µM | LOX IMVI 14.7 µM | NCI-H460 17.8 µM | OVCAR-8 19.5 µM | RXF 393 12 µM | SF-268 19.7 µM | SF-539 17.5 µM | SK-OV-3 21.4 µM | SNB-19 18.4 µM | TK-10 37.1 µM | UACC-62 15.7 µM

CC(C)c1ccc(/C=C(\NC(=O)c2ccccc2)c2nc3ccccc3[nH]2)cc1
inactive: 786-0 39.3 µM | CCRF-CEM 34.1 µM | COLO 205 35.8 µM | HOP-92 36.7 µM | K562 27.5 µM | KM12 32.2 µM | LOX IMVI 27.2 µM | NCI-H460 59.4 µM | OVCAR-5 75.3 µM | OVCAR-8 32.4 µM | RXF 393 36.5 µM | SF-268 41 µM | SF-539 77.1 µM | SK-MEL-2 34.4 µM | SK-OV-3 > 100 µM | SNB-19 47.8 µM | TK-10 54.5 µM | UACC-62 37.4 µM

O=C1C2c3[nH]c4ccccc4c3[C@@H]3CCCCCCCCCCC3C2C(=O)N1c1ccccc1 (some centres undefined)
inactive: 786-0 16.1 µM | COLO 205 23 µM | K562 8.67 µM | KM12 18.2 µM | LOX IMVI 16.1 µM | NCI-H460 17.3 µM | OVCAR-5 > 100 µM | OVCAR-8 18.1 µM | RXF 393 14.8 µM | SF-268 13.6 µM | SF-539 10.1 µM | SK-OV-3 10.4 µM | SNB-19 12.4 µM | TK-10 20 µM | UACC-62 20.1 µM

COc1ccc(-c2nnc(-c3c(C)n(C)n(-c4ccccc4)c3=O)o2)cc1
inactive: 786-0 > 100 µM | CCRF-CEM > 100 µM | COLO 205 > 100 µM | HOP-92 > 100 µM | K562 > 100 µM | KM12 > 100 µM | LOX IMVI > 100 µM | NCI-H460 > 100 µM | OVCAR-8 > 100 µM | RXF 393 > 100 µM | SF-268 > 100 µM | SF-539 > 100 µM | SK-MEL-2 > 100 µM | SK-OV-3 > 100 µM | SNB-19 > 100 µM | TK-10 > 100 µM | UACC-62 > 100 µM

CC(=O)OC1[C@H]2c3cc4c(cc3CN3CCC(=C[C@@H]1O)C23)OCO4 (some centres undefined)
inactive: 786-0 > 100 µM | CCRF-CEM > 100 µM | COLO 205 > 100 µM | K562 > 100 µM | KM12 44.4 µM | LOX IMVI > 100 µM | NCI-H460 > 100 µM | OVCAR-8 > 100 µM | RXF 393 > 100 µM | SF-268 37.2 µM | SF-539 > 100 µM | SK-OV-3 > 100 µM | SNB-19 56.8 µM | TK-10 > 100 µM | UACC-62 53.7 µM

COC[C@H](C)/N=C/N1CCc2ccccc2C1(Cc1ccccc1)Cc1ccccc1
inactive: 786-0 16.5 µM | CCRF-CEM 12.9 µM | COLO 205 13.5 µM | HOP-92 15.6 µM | K562 6.97 µM | KM12 13.6 µM | NCI-H460 12 µM | OVCAR-8 15.1 µM | RXF 393 15.2 µM | SF-268 21.9 µM | SF-539 18.2 µM | SK-MEL-2 10.6 µM | SK-OV-3 16.9 µM | SNB-19 17.3 µM | TK-10 17.8 µM | UACC-62 26.9 µM

COc1cc(C2C(Cl)C(=O)N2NC(=O)Cc2ccccc2)cc(Br)c1O (centres undefined)
inactive: 786-0 > 100 µM | CCRF-CEM 46.1 µM | COLO 205 > 100 µM | K562 > 100 µM | KM12 > 100 µM | LOX IMVI 74.3 µM | NCI-H460 80.9 µM | OVCAR-5 > 100 µM | OVCAR-8 > 100 µM | RXF 393 92.3 µM | SF-268 61 µM | SK-MEL-2 > 100 µM | SK-OV-3 > 100 µM | SNB-19 > 100 µM | TK-10 > 100 µM | UACC-62 55 µM
